Results on eleven compounds are retold here after ChEMBL document CHEMBL1201862, “PubChem BioAssay data set” (2004).

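Following 48 hours of exposure in 96-well plates, responses at five concentrations were used to interpolate endpoints linearly. Abbreviation: GI50, concentration required for 50% inhibition of growth.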 Active and inactive are the calls of the source. No stated cut-off is given here; in the data, active = GI50 up to about 1.1 µM and inactive = higher.

Test systems include A498; BT-549; COLO 205; DU-145; HOP-62; HT-29; Hs-578T; KM12; M14; MCF7; MDA-MB-435; MDA-N; NCI-H460; RPMI-8226; SF-295; SK-MEL-2; SNB-19; SNB-75; TK-10; LOX IMVI.
Common to all, as to assay: DTP human tumour cell line panel, 48 h

Take `CCOP(=O)(Nc1ccc(-c2ccc(N)cc2)cc1)OCC`: the GI50 was > 100 µM (inactive) in the assay on A498; > 100 µM (inactive) in the assay on BT-549; > 100 µM (inactive) in the assay with COLO 205; > 100 µM (inactive) in the assay with DU-145; 89.5 µM (inactive) in the assay on HOP-62; > 100 µM (inactive) in the assay on HT-29. Besides, the GI50 was 43.6 µM (inactive) in the assay with Hs-578T; > 100 µM (inactive) with KM12; > 100 µM (inactive) with M14; > 100 µM (inactive) in the assay with MCF7; > 100 µM (inactive) in the assay on MDA-MB-435; > 100 µM (inactive) with MDA-N. For the same compound, the GI50 was > 100 µM (inactive) in the assay on NCI-H460; > 100 µM (inactive) with RPMI-8226; 84.5 µM (inactive) with SF-295; > 100 µM (inactive) in the assay with SK-MEL-2; 94.8 µM (inactive) with SNB-19; > 100 µM (inactive) in the assay on SNB-75. The GI50 with TK-10 was > 100 µM (inactive).

Take `CN1C(=S)C(c2ccccc2)Sc2ccccc21` (configuration not stated): the GI50 is 42.7 µM (inactive) in the assay on BT-549; 47.4 µM (inactive) in the assay with COLO 205; > 100 µM (inactive) in the assay with DU-145; > 100 µM (inactive) with HOP-62; > 10 µM (inactive) with HT-29; 35.6 µM (inactive) with Hs-578T. The GI50 with KM12 is 63.7 µM (inactive); with LOX IMVI, 77.1 µM (inactive); in the assay with M14, > 100 µM (inactive); in the assay on MCF7 it was 48.8 µM (inactive); with MDA-MB-435, 57 µM (inactive); in the assay on MDA-N, 77.8 µM (inactive). Also, the GI50 in the assay on NCI-H460 was 27.8 µM (inactive); with RPMI-8226, > 100 µM (inactive); in the assay with SF-295, 17.4 µM (inactive); in the assay on SNB-19 it was > 100 µM (inactive); in the assay on SNB-75 it was 35.7 µM (inactive); with TK-10, 85.9 µM (inactive).

Take `CC(C)[C@H]1NC(=O)[C@H]2N=C(O[C@@H]2C)[C@@H]2CCCN2C(=O)[C@H](Cc2ccccc2)NC(=O)[C@@H]2COC(=N2)[C@@H](Cc2ccccc2)NC(=O)[C@@H]2COC1=N2`: the GI50 with BT-549, in the assay on COLO 205, in the assay with DU-145, in the assay on HOP-62, in the assay with HT-29 and in the assay with Hs-578T was > 100 µM (inactive) in each case. For the same compound, the GI50 in the assay on KM12, in the assay with LOX IMVI, in the assay on M14, in the assay on MCF7, in the assay on MDA-MB-435 and in the assay with MDA-N was > 100 µM (inactive) in each case. The GI50 with RPMI-8226 was > 100 µM (inactive); with SF-295 it was > 100 µM (inactive); in the assay with SK-MEL-2 it was > 100 µM (inactive); in the assay on SNB-19, > 100 µM (inactive); with SNB-75, 0.428 µM (active); in the assay with TK-10, > 100 µM (inactive).

On to `O=C(O)[C@@]1(Cc2ccc(O)cc2)C[C@@H]2Cc3ccccc3N2N1`, for which the GI50 with A498, with BT-549, in the assay on COLO 205, with DU-145, with HOP-62 and in the assay on HT-29 was > 100 µM (inactive) throughout. Further, the GI50 in the assay on Hs-578T, in the assay with KM12, in the assay with LOX IMVI, in the assay with M14, with MCF7 and in the assay with MDA-MB-435 was > 100 µM (inactive) each time. Further, the GI50 in the assay with MDA-N, in the assay with RPMI-8226, in the assay with SF-295, with SK-MEL-2, in the assay with SNB-19 and with TK-10 was > 100 µM (inactive) each time.

For `O=[N+]([O-])C(=C1NCCN1)/C(Cl)=C(/Cl)N1CCOCC1`, the GI50 in the assay with A498, with BT-549, in the assay with COLO 205, with DU-145, in the assay with HOP-62 and in the assay on HT-29 was > 100 µM (inactive) throughout. Moreover, the GI50 in the assay on Hs-578T, in the assay on KM12, with M14, in the assay with MCF7, in the assay on MDA-MB-435 and with MDA-N was > 100 µM (inactive) throughout. The GI50 with NCI-H460, in the assay on RPMI-8226, in the assay with SF-295, with SK-MEL-2, in the assay on SNB-19 and in the assay with SNB-75 was > 100 µM (inactive) in each case.

In the case of `Cc1cccc(C(C)O)n1` (configuration not stated), the GI50 with A498, with BT-549, in the assay with COLO 205, with DU-145, with HOP-62 and in the assay on HT-29 was > 100 µM (inactive) each time. In addition, the GI50 with Hs-578T, with KM12, in the assay on M14, in the assay on MCF7, in the assay on MDA-N and in the assay with NCI-H460 was > 100 µM (inactive) in each case. Further, the GI50 in the assay on SF-295, with SK-MEL-2, in the assay on SNB-19, in the assay on SNB-75 and with TK-10 was > 100 µM (inactive) throughout.

For `C/C(=N\Nc1nc2ccccc2s1)c1cccc[n+]1[O-]`, the GI50 with A498 was > 100 µM (inactive); in the assay with BT-549, > 100 µM (inactive); in the assay on COLO 205 it was 32.2 µM (inactive); in the assay on DU-145, > 100 µM (inactive); with HOP-62 it was 48.3 µM (inactive); in the assay with HT-29, 41.5 µM (inactive). Moreover, the GI50 in the assay on Hs-578T is > 100 µM (inactive); with KM12, 30.1 µM (inactive); in the assay on LOX IMVI, 48.6 µM (inactive); with M14, 32.2 µM (inactive); in the assay with MCF7, 23.2 µM (inactive); in the assay on MDA-MB-435, 99.1 µM (inactive). Moreover, the GI50 was 76.2 µM (inactive) in the assay on MDA-N; 46.2 µM (inactive) in the assay with NCI-H460; 41.1 µM (inactive) in the assay on RPMI-8226; 0.594 µM (active) in the assay on SF-295; > 100 µM (inactive) in the assay on SK-MEL-2; > 100 µM (inactive) in the assay on SNB-19. The GI50 with TK-10 is 17 µM (inactive).

As for `Cc1ccc(/C=N/Nc2cnccn2)s1`, the GI50 was > 100 µM (inactive) with BT-549; > 100 µM (inactive) in the assay with COLO 205; > 100 µM (inactive) in the assay on HOP-62; 47.1 µM (inactive) with HT-29; > 100 µM (inactive) with Hs-578T; > 100 µM (inactive) in the assay on KM12. Further, the GI50 in the assay with LOX IMVI is > 100 µM (inactive); with M14, > 100 µM (inactive); in the assay on MCF7, 17.4 µM (inactive); in the assay with MDA-MB-435, > 100 µM (inactive); with MDA-N it was 99.3 µM (inactive); in the assay on RPMI-8226, > 100 µM (inactive). For the same compound, the GI50 in the assay on SF-295, in the assay on SK-MEL-2, with SNB-19, with SNB-75 and in the assay with TK-10 was > 100 µM (inactive) each time.

Turning to `O=C(O)c1ccc(N/C(=C(/C(Cl)=C(Cl)Cl)[N+](=O)[O-])n2nnc3ccccc32)cc1`, the GI50 in the assay on A498, in the assay with BT-549, in the assay on COLO 205, in the assay on HOP-62, in the assay with HT-29 and in the assay with Hs-578T was > 100 µM (inactive) each time. For the same compound, the GI50 in the assay on KM12, with M14, with MCF7, in the assay on MDA-MB-435, in the assay on MDA-N and in the assay with NCI-H460 was > 100 µM (inactive) each time. The GI50 with RPMI-8226, in the assay on SF-295, in the assay on SK-MEL-2 and in the assay on SNB-19 was > 100 µM (inactive) each time.

As to `Clc1nc2n(c1/C=C/c1cccs1)CCS2`, the GI50 was 20 µM (inactive) with A498; 26.6 µM (inactive) in the assay on BT-549; 37.8 µM (inactive) in the assay with COLO 205; 28.6 µM (inactive) in the assay with DU-145; 53.7 µM (inactive) in the assay on HOP-62; 24.3 µM (inactive) in the assay with HT-29. Also, the GI50 is 30.1 µM (inactive) in the assay on Hs-578T; 37.7 µM (inactive) with KM12; 38.7 µM (inactive) with M14; 30.8 µM (inactive) in the assay on MCF7; 31.1 µM (inactive) in the assay with MDA-MB-435; 36.5 µM (inactive) with MDA-N. Further, the GI50 with RPMI-8226 is 15.7 µM (inactive); in the assay on SF-295, 29.6 µM (inactive); in the assay on SK-MEL-2 it was > 100 µM (inactive); in the assay with SNB-19, 43.6 µM (inactive); in the assay on SNB-75, 55 µM (inactive); in the assay with TK-10, 36 µM (inactive).

For the compound `COc1cccc(C(C#N)NC23CC4CC(CC(C4)C2)C3)c1` (configuration not stated), the GI50 in the assay on BT-549, with COLO 205, with DU-145, in the assay on HOP-62, in the assay on HT-29 and in the assay on Hs-578T was > 100 µM (inactive) each time. For the same compound, the GI50 in the assay on KM12, in the assay on LOX IMVI, in the assay on M14, in the assay with MCF7, in the assay on MDA-MB-435 and in the assay on MDA-N was > 100 µM (inactive) in each case. For the same compound, the GI50 in the assay with NCI-H460, with RPMI-8226, with SF-295, with SK-MEL-2, in the assay on SNB-19 and in the assay with SNB-75 was > 100 µM (inactive) in each case. Also, the GI50 in the assay on TK-10 is > 100 µM (inactive).

Usually GI50 stands for the concentration giving 50% growth inhibition.
